According to patent US11987648B2, “Cyclohexapeptides as selective somatostatin SST5 receptor agonists” (Heptares Therapeutics Limited, priority 2018, dated 2024):
*1 amine or outer side, *2 acyl side, *3 side chain or, on linkers, in order; H or OH if unused. Where a SMILES comes first, the peptide text is derived from it. Side-chain parts run from the residue outwards. [ ]: non-standard residue; d: D form. The star is where a group is joined. Ala(piperidin-4-yl) = O=C([C@H](CC1CCN([*:3])CC1)N[*:1])[*:2]; dTrp(4-OMe) = COc1cccc2[nH]cc(C[C@@H](N)C(=O)O)c12; X8 = COc1cc2c(cc1OC)CN([*:1])[C@H](C(=O)[*:2])C2; dTrp(4-Me) = Cc1cccc2[nH]cc(C[C@@H](N)C(=O)O)c12; Ala(piperazin-1-yl) = N[C@@H](CN1CCNCC1)C(=O)O; Tyr(Ph) = N[C@@H](Cc1ccc(Oc2ccccc2)cc1)C(=O)O; X7 = NCCOC(=O)N1CCN([*:1])[C@H](C(=O)[*:2])C1; Morpholine(3S-CO) = O=C(O)[C@@H]1COCCN1; Pro(4,4-F2) = O=C(O)[C@@H]1CC(F)(F)CN1; Ethylenediamine = C(CN[*:2])N[*:1]; d(hPhe) = N[C@H](CCc1ccccc1)C(=O)O; Hyp = O=C(O)[C@@H]1C[C@@H](O)CN1; NMeF = CN[C@@H](Cc1ccccc1)C(=O)O; Pip(4-aza) = O=C(O)[C@@H]1CNCCN1; hPhe = N[C@@H](CCc1ccccc1)C(=O)O; 3Pal = N[C@@H](Cc1cccnc1)C(=O)O; Cyclohexylmethyl = C1CCC(C*)CC1; Tic = O=C(O)[C@@H]1Cc2ccccc2CN1; Benzyl(4-Cl) = Clc1ccc(C*)cc1; Phg = N[C@H](C(=O)O)c1ccccc1; X9 = O=C(C1CNCCN1[*:1])[*:2]; Pip = O=C(O)[C@@H]1CCCCN1; X3 = CN[C@H]1CCN(*)C1; CO = O=C([*:1])[*:2]; Bn = c1ccc(C*)cc1

Experiments:
SST5 = SST5 (Homo sapiens, UniProt P35346); assay: Hit Hunter cAMP XS+ assay, SST5 activation via Gi (reduction of forskolin-stimulated cAMP); assay type: cell-based; conditions: for Emax: read-out: SST5 (EMax); for EC50: reduction of forskolin-stimulated cAMP, 4-parameter logistic fit, read-out: SST5 pEC50 (converted); for SST5/2 Selectivity: selectivity for SST5 over SST2
Method in brief: (§1)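 Cells (10,000/well) incubated 30 min at 37 °C with compound under EC80 forskolin ([…] for SST2, 15 μM for SST5). cAMP reduction was detected by enzyme-fragment complementation chemiluminescence after 60 min and 180 min room-temperature reagent steps. Potency and efficacy were both measured.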

SST2 = SST2 (Homo sapiens, UniProt P30874); assay: Hit Hunter cAMP XS+ assay, SST2 activation via Gi (reduction of forskolin-stimulated cAMP); assay type: cell-based; conditions: for Emax: read-out: SST2 (EMax); for EC50: reduction of forskolin-stimulated cAMP, 4-parameter logistic fit, read-out: SST2 pEC50 (converted)
Method in brief: as §1

Chain of SST2 (P30874 whole entry): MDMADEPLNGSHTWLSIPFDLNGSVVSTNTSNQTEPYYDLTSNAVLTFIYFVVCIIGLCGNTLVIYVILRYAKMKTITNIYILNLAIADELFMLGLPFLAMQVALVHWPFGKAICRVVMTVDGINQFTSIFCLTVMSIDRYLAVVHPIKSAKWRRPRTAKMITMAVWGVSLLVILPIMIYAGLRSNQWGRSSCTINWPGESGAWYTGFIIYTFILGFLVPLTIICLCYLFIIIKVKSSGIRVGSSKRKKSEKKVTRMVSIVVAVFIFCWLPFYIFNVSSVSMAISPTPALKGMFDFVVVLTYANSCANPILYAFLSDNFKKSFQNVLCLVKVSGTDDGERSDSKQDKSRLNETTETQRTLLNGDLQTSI
Chain of SST5 (P35346 whole entry, the tested form may be a part): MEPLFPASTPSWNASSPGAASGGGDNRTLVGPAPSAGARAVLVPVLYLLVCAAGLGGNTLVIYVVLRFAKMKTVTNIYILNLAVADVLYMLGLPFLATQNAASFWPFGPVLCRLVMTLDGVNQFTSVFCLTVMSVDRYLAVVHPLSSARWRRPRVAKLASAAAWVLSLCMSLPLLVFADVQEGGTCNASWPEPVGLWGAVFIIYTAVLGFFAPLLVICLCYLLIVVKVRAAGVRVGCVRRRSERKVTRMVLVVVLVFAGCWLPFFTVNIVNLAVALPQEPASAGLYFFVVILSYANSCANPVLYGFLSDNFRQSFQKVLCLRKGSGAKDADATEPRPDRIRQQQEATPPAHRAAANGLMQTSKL

Structure (SMILES)	Emax (SST5) [%]	EC50 (SST5) [nM]	SST5/2 Selectivity (SST5)	Emax (SST2) [%]	EC50 (SST2) [nM]
COc1ccc(C[C@@H]2NC(=O)[C@H](Cc3ccc(OCc4ccccc4)cc3)NC(=O)[C@H](CC3CCNCC3)NC(=O)[C@@H](Cc3c[nH]c4ccccc34)NC(=O)[C@@H](CCc3ccccc3)NC(=O)[C@@H]3C[C@@H](OC(=O)NCCN)CN3C2=O)cc1 [Example 55] (cyclo([Hyp]([CO-Ethylenediamine])[d(hPhe)][dW][Ala(piperidin-4-yl)]Y(Bn)Y(Me)))	106	10	1120.0	85.9	> 10000
CN1C(=O)[C@H](Cc2ccc(OCc3ccccc3)cc2)NC(=O)[C@H](CN2CCNCC2)NC(=O)[C@@H](Cc2c[nH]c3ccccc23)NC(=O)[C@H](CCc2ccccc2)NC(=O)[C@@H]2C[C@@H](OC(=O)NCCN)CN2C(=O)[C@@H]1Cc1ccccc1 [Example 57] (cyclo([Hyp]([CO-Ethylenediamine])[hPhe][dW][Ala(piperazin-1-yl)]Y(Bn)[NMeF]))	102	0.501	404.6	96.5	200
NCCNC(=O)O[C@@H]1C[C@H]2C(=O)N[C@H](CCc3ccccc3)C(=O)N[C@H](Cc3c[nH]c4ccccc34)C(=O)N[C@@H](CN3CCNCC3)C(=O)N[C@@H](Cc3ccc(OCc4ccc(Cl)cc4)cc3)C(=O)N[C@@H](Cc3cccnc3)C(=O)N2C1 [Example 58] (cyclo([3Pal][Hyp]([CO-Ethylenediamine])[d(hPhe)][dW][Ala(piperazin-1-yl)]Y(Benzyl(4-Cl))))	103	15.8	695.7	42.9	> 10000
NCCNC(=O)O[C@@H]1C[C@H]2C(=O)N[C@@H](CCc3ccccc3)C(=O)N[C@H](Cc3c[nH]c4ccccc34)C(=O)N[C@@H](CN3CCNCC3)C(=O)N[C@@H](Cc3ccc(OCc4ccc(Cl)cc4)cc3)C(=O)N[C@@H](Cc3cccnc3)C(=O)N2C1 [Example 59] (cyclo([3Pal][Hyp]([CO-Ethylenediamine])[hPhe][dW][Ala(piperazin-1-yl)]Y(Benzyl(4-Cl))))	106	0.631	738.9	95.7	501
Cc1cccc2[nH]cc(C[C@H]3NC(=O)[C@H](CCc4ccccc4)NC(=O)[C@@H]4C[C@@H](OC(=O)NCCN)CN4C(=O)[C@H](Cc4cccnc4)NC(=O)[C@H](Cc4ccc(OCc5ccccc5)cc4)NC(=O)[C@H](CC4CCNCC4)NC3=O)c12 [Example 60] (cyclo([3Pal][Hyp]([CO-Ethylenediamine])[hPhe][dTrp(4-Me)][Ala(piperidin-4-yl)]Y(Bn)))	104	1	129.4	99.8	126
O=C1N[C@@H](Cc2ccc(OCc3ccccc3)cc2)C(=O)N2Cc3ccccc3C[C@H]2C(=O)N2CCOC[C@H]2C(=O)N[C@H](CCc2ccccc2)C(=O)N[C@H](Cc2c[nH]c3ccccc23)C(=O)N[C@H]1CN1CCNCC1 [Example 61] (cyclo([Tic][Morpholine(3S-CO)][d(hPhe)][dW][Ala(piperazin-1-yl)]Y(Bn)))	103	31.6	291.4	23.4	> 10000
O=C1N[C@@H](Cc2ccc(OCc3ccccc3)cc2)C(=O)N2Cc3ccccc3C[C@H]2C(=O)N2CCOC[C@H]2C(=O)N[C@H](CCc2ccccc2)C(=O)N[C@H](Cc2c[nH]c3ccccc23)C(=O)N[C@H]1CC1CCNCC1 [Example 62] (cyclo([Tic][Morpholine(3S-CO)][d(hPhe)][dW][Ala(piperidin-4-yl)]Y(Bn)))	102	3.16	224.3	99.4	631
COc1cccc2[nH]cc(C[C@H]3NC(=O)[C@@H](CCc4ccccc4)NC(=O)[C@@H]4COCCN4C(=O)[C@@H]4Cc5ccccc5CN4C(=O)[C@H](Cc4ccc(OCc5ccccc5)cc4)NC(=O)[C@H](CN4CCNCC4)NC3=O)c12 [Example 63] (cyclo([Tic][Morpholine(3S-CO)][d(hPhe)][dTrp(4-OMe)][Ala(piperazin-1-yl)]Y(Bn)))	104	2.51	24.4	102	63.1
COc1cccc2[nH]cc(C[C@H]3NC(=O)[C@H](c4ccccc4)NC(=O)[C@@H]4C[C@@H](OC(=O)NCCN)CN4C(=O)[C@H](Cc4ccccc4)NC(=O)[C@H](Cc4ccc(OCc5ccccc5)cc4)NC(=O)[C@H](CN4CCNCC4)NC3=O)c12 [Example 64] (cyclo(F[Hyp]([CO-Ethylenediamine])[Phg][dTrp(4-OMe)][Ala(piperazin-1-yl)]Y(Bn)))	104	15.8	5.5	100	100
O=C1N[C@@H](CCc2ccccc2)C(=O)N[C@H](Cc2c[nH]c3ccccc23)C(=O)N[C@@H](CN2CCNCC2)C(=O)N[C@@H](Cc2ccc(OCc3ccccc3)cc2)C(=O)N2Cc3ccccc3C[C@H]2C(=O)N2CCNCC12 (some centres unmarked) [Example 65] (cyclo([Tic][X9][hPhe][dW][Ala(piperazin-1-yl)]Y(Bn)))	99.4	0.398	2293.7	91.8	1000
COc1cc2c(cc1OC)CN1C(=O)[C@H](Cc3ccc(OCc4ccccc4)cc3)NC(=O)[C@H](CC3CCNCC3)NC(=O)[C@@H](Cc3c[nH]c4ccccc34)NC(=O)[C@H](CCc3ccccc3)NC(=O)[C@@H]3C[C@@H](OC(=O)NCCN)CN3C(=O)[C@@H]1C2 [Example 66] (cyclo([Hyp]([CO-Ethylenediamine])[hPhe][dW][Ala(piperidin-4-yl)]Y(Bn)[X8]))	103	1.26	7454.5	51.1	> 10000
NCCNC(=O)O[C@@H]1C[C@H]2C(=O)N[C@@H](CCc3ccccc3)C(=O)N[C@H](Cc3c[nH]c4ccccc34)C(=O)N[C@@H](CC3CCNCC3)C(=O)N[C@@H](Cc3ccc(Oc4ccccc4)cc3)C(=O)N[C@@H](Cc3cccnc3)C(=O)N2C1 [Example 67] (cyclo([3Pal][Hyp]([CO-Ethylenediamine])[hPhe][dW][Ala(piperidin-4-yl)][Tyr(Ph)]))	104	15.8	25.7	98.3	398
COc1cccc2[nH]cc(C[C@H]3NC(=O)[C@H](CCc4ccccc4)NC(=O)[C@@H]4COCCN4C(=O)[C@@H]4Cc5ccccc5CN4C(=O)[C@H](Cc4ccc(OCc5ccccc5)cc4)NC(=O)[C@H](CN4CCNCC4)NC3=O)c12 [Example 68] (cyclo([Tic][Morpholine(3S-CO)][hPhe][dTrp(4-OMe)][Ala(piperazin-1-yl)]Y(Bn)))	98.8	0.316	791.6	99.1	251
NCCNC(=O)O[C@@H]1C[C@H]2C(=O)N[C@@H](CCc3ccccc3)C(=O)N[C@H](Cc3c[nH]c4ccccc34)C(=O)N[C@@H](CN3CCNCC3)C(=O)N[C@@H](Cc3ccc(OCc4ccccc4)cc3)C(=O)N3CCCC[C@H]3C(=O)N2C1 [Example 69] (cyclo([Hyp]([CO-Ethylenediamine])[hPhe][dW][Ala(piperazin-1-yl)]Y(Bn)[Pip]))	103	79.4	124.3	69	> 10000
NCCNC(=O)O[C@@H]1C[C@H]2C(=O)N[C@@H](CCc3ccccc3)C(=O)N[C@H](Cc3c[nH]c4ccccc34)C(=O)N[C@@H](CN3CCNCC3)C(=O)N[C@@H](Cc3ccc(OCc4ccccc4)cc3)C(=O)N3CC(F)(F)C[C@H]3C(=O)N2C1 [Example 70] (cyclo([Hyp]([CO-Ethylenediamine])[hPhe][dW][Ala(piperazin-1-yl)]Y(Bn)[Pro(4,4-F2)]))	102	5.01	1815.8	77.9	> 10000
NCCNC(=O)O[C@@H]1C[C@H]2C(=O)N[C@H](CCc3ccccc3)C(=O)N[C@H](Cc3c[nH]c4ccccc34)C(=O)N[C@@H](CN3CCNCC3)C(=O)N[C@@H](Cc3ccc(OCC4CCCCC4)cc3)C(=O)N[C@@H](Cc3cccnc3)C(=O)N2C1 [Example 71] (cyclo([3Pal][Hyp]([CO-Ethylenediamine])[d(hPhe)][dW][Ala(piperazin-1-yl)]Y(Cyclohexylmethyl)))	103	63.1	171.4	52.8	> 10000
NCCOC(=O)N1CCN2C(=O)[C@@H]3Cc4ccccc4CN3C(=O)[C@H](Cc3ccc(OCc4ccccc4)cc3)NC(=O)[C@H](CN3CCNCC3)NC(=O)[C@@H](Cc3c[nH]c4ccccc34)NC(=O)[C@H](CCc3ccccc3)NC(=O)[C@@H]2C1 [Example 72] (cyclo([Tic][X7][hPhe][dW][Ala(piperazin-1-yl)]Y(Bn)))	101	6.31	1621.3	14	> 10000
O=C1N[C@@H](Cc2ccc(OCc3ccccc3)cc2)C(=O)N2Cc3ccccc3C[C@H]2C(=O)N2CCNC[C@H]2C(=O)N[C@@H](CCc2ccccc2)C(=O)N[C@H](Cc2c[nH]c3ccccc23)C(=O)N[C@H]1CC1CCNCC1 [Example 73] (cyclo([Tic][Pip(4-aza)][hPhe][dW][Ala(piperidin-4-yl)]Y(Bn)))	94.9	0.631	566.7	99.2	398
CN[C@H]1CCN(C(=O)O[C@@H]2C[C@H]3C(=O)N[C@@H](CCc4ccccc4)C(=O)N[C@H](Cc4c[nH]c5ccccc45)C(=O)N[C@@H](CC4CCNCC4)C(=O)N[C@@H](Cc4ccc(OCc5ccccc5)cc4)C(=O)N4Cc5ccccc5C[C@H]4C(=O)N3C2)C1 [Example 78] (cyclo([Hyp]([CO-X3])[hPhe][dW][Ala(piperidin-4-yl)]Y(Bn)[Tic]))	106	1.26	2726.7	76.2	3160
